Source: US8378117B2 (priority 2005, dated 2013)

Assays:
CB2 receptor [1] = biological target: T1, CB2 receptor (Homo sapiens, UniProt P34972); experiment: Binding assay for CB2 agonists or inverse agonists (SK-N-MC membranes, [3H]-CP-55,940); conditions: for IC50: Cannabinoid CB2 Receptor Binding IC50, calculated by linear regression from percent inhibition at various test concentrations
T1 construct: expressed in transfected cells
In short: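 Membranes from SK-N-MC cells stably expressing human CB2 were incubated with radioligand and test compounds for 90 min at 30 °C in Tris-HCl buffer, pH 7.5, with MgCl2, EDTA and fatty-acid-free BSA. Filter-bound radioactivity was counted; IC50 was derived by linear regression of percent inhibition.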

CB2 receptor [2] = biological target: T1, CB2 receptor; experiment: Functional cell-based assay, CB2 receptor mediated change in CRE β-gal expression (SK-N-MC cells); conditions: CB2 Receptor Functional Agonist EC50, forskolin induced β-galactosidase activity, SK-N-MC cells
Source text: The CB1 and CB2 receptors are G-protein coupled receptors (GPCR), which influence cell function via the Gi-protein. These receptors modulate the activity of intracellular adenylate cyclase, which in turn produces the intracellular signal messenger cyclic-AMP (cAMP).
At baseline, or during non-ligand bound conditions, these receptors are constitutively active and tonically suppress adenylate cyclase activity. The binding of an agonist causes further receptor activation and produces additional suppression of adenylate cyclase activity. The binding of an inverse agonist inhibits the constitutive activity of the receptors and results in an increase in adenylate cyclase activity.
By monitoring intracellular adenylate cyclase activity, the ability of compounds to act as agonists or inverse agonists can be determined.
Test compounds were evaluated in SK-N-MC cells which, using standard transfection procedures, were stably transfected with human cDNA for pcDNA3-CRE β-gal and pcDNA3 CB1 receptor (human) or pcDNA3 CB2 receptor (human). By expressing CRE β-gal, the cells produced β-galactosidase in response to CRE promoter activation by cAMP. Cells expressing CRE β-gal and either the human CB1 or CB2 receptor will produce less β-galactosidase when treated with a CB1/CB2 agonist and will produce more β-galactosidase when treated with a CB1/CB2 inverse agonist.
The cells were grown in 96-well plates under standard cell culture conditions at 37° C. in a 5% CO2 atmosphere and culture media (wherein the media was supplemented with 2 mM L-glutamine, […] sodium pyruvate, 10% FBS (fetal bovine serum) and antibiotics).
For cells expressing CRE β-gal and the CB2 receptor, CB2 agonists reduced β-galactosidase activity in a dose-dependent manner and CB2 inverse agonists increase β-galactosidase activity in a dose-dependent manner.
The change in forskolin induced β-galactosidase activity was determined by setting a vehicle treated cell's activity value at 100% and expressing the β-galactosidase activity measured in a corresponding compound treated cell as a percent of the vehicle treated cell activity.
The EC50 value for functional activity for compounds tested was calculated by linear regression and was obtained from studies in which varying compound concentrations were used.

CB1 receptor [3] = biological target: T2, CB1 receptor (Homo sapiens, UniProt P21554); experiment: Modified functional cell-based assay (Beta-Glo luminescence), CB1 receptor
T2 construct: expressed in transfected cells
T2 sequence (P21554 whole entry): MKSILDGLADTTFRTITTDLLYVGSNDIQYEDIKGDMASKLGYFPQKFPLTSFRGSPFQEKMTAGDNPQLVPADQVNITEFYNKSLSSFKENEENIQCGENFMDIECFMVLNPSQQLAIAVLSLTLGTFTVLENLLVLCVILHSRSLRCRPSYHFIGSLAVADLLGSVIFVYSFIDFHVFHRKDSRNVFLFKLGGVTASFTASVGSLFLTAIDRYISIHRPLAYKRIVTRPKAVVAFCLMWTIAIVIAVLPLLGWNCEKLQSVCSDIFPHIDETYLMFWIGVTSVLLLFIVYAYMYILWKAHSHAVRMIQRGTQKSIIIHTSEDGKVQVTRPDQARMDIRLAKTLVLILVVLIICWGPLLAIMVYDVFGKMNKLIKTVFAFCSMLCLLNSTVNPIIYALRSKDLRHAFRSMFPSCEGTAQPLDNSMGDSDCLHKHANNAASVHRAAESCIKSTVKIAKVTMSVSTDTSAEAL
Procedure: (§1) Additional functional activity studies were performed with minor modifications. Beta galactosidase activity was quantified using the luminescent Beta-Glo Assay System (Promega Corp. Madison, Wis.) and an Orion Microplate Luminometer (Berthold Detection Systems, Oak Ridge, Tenn.). The EC50 values were calculated using GraphPad Prism and a four parameter logistic equation.
(§2) The functional activity EC50 value for compounds tested (shown in Table 8) were obtained from studies in which varying compound concentrations were used. With the exception of Cpd 237 (n=3), one sample for each compound was tested.

CB1 receptor [4] = biological target: T2, CB1 receptor; experiment: cell-based; conditions: CB1 Receptor Functional Agonist EC50, SK-N-MC cells, forskolin induced β-galactosidase activity
In short: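 SK-N-MC cells stably co-expressing human CB1 and a CRE-β-galactosidase reporter; forskolin-induced β-gal activity measured after compound treatment, as % of vehicle-treated cells (100%). EC50 by linear regression from concentration series; otherwise % change at a single concentration.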

CB2 receptor [5] = biological target: T1, CB2 receptor; experiment: Modified functional cell-based assay (Beta-Glo luminescence), CB2 receptor; conditions: CB2 EC50 (Receptor Functional Activity), one sample per compound, Cpd 237 n=3
Procedure: as §1, §2

CB1 receptor [6] = biological target: T2, CB1 receptor; experiment: Modified binding assay, CB1 receptor in CHO cells, [3H]CP 55940; conditions: [3H]CP 55940 0.5 nM, 120 minutes at 37° C.
Procedure: Additional receptor binding studies were performed with minor modifications as detailed below.
The human CB1 and CB2 receptors were stably expressed in CHO cells as described in Rinaldi-Carmona, M., Calandra, B., Shire, D., Bouaboula, M., Oustric, D., Barth, F., Casellas, P., Ferrara, P. and Le Fur, G. (1996) J. PharmacoL Exp. Ther., 278: 871-878 and Munro, S., Thomas, K. L. and Abu-Shaar, M. (1993) Nature, 365: 61-65, respectively. [^3H]CP 55940 (0.5 nM) was used as the radioligand for the CB1 receptor binding assay. [^3H]WIN 55212 (0.8 nM) was used as the radioligand for the CB2 receptor binding assay. Incubation was carried out for 120 minutes at 37° C.
The specific ligand binding to the receptors is defined as the difference between the total binding and the nonspecific binding determined in the presence of an excess of unlabelled ligand. The results are expressed as a percent of control specific binding ((measured specific binding/control specific binding)×100) obtained in the presence of the test compounds.
The IC50 values (concentration causing a half-maximal inhibition of control specific binding) were determined by non-linear regression analysis of the competition curves generated with mean replicate values using Hill equation curve fitting (where Y=specific binding, D=minimum specific binding, A=maximum specific binding, C=compound concentration, C50=IC50 and nH=slope factor): (Y=D+[(A−D)/(1+(C/C50)^nH)] CB1 and CB2 Receptor Binding Results
For compounds tested, an IC50 binding value was obtained from percent inhibition studies in which various test concentrations were used.

[7] = CB1 EC50 (Receptor Functional Activity), one sample per compound, Cpd 237 n=3

T1 sequence (P34972 whole entry): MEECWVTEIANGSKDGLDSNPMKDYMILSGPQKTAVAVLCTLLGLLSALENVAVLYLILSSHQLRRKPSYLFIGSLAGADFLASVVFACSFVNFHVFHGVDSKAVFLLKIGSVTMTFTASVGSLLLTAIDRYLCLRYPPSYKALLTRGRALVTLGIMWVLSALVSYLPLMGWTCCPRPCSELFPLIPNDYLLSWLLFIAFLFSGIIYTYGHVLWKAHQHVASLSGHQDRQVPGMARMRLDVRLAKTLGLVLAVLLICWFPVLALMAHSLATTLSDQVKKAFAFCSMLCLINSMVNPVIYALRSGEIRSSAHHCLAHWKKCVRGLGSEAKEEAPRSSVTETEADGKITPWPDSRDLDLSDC

Row | Structure (SMILES) | IC50 (CB2 receptor [1]) | CB2 receptor binding percent inhibition (CB2 receptor [1]; test concentration 0.2 μM (footnote 2), 0.2 µM) | EC50 (CB2 receptor [2]) | EC50 (CB1 receptor [3]; [7]) | EC50 (CB1 receptor [4]) | EC50 (CB2 receptor [5]) | IC50 (CB1 receptor [6]) | inhibition at 0.2 µM (CB2 receptor [1]; test concentration 0.2 μM (footnote 2), read-out: CB2 receptor binding percent inhibition) | EC50 (CB1 receptor [3]; read-out: CB1 EC50 (Receptor Functional Activity), one sample per compound, Cpd 237 n=3)
1 | C[C@H](NS(=O)(=O)/C=C/c1n[nH]c2c1CCCCC2Cc1cccc(F)c1)c1ccccc1 (single isomer, unassigned) [Cpd 232, (2E)-2-[(8R*)-8-(3-fluoro-benzyl)-1,4,5,6,7,8-hexahydro-cycloheptapyrazol-3-yl]-ethenesulfonic acid [(1S)-1-phenyl-ethyl]-amide] | 60 nM | 81% | 9 nM | ~3200 nM | > 5000 nM | 150 nM | – | – | –
2 | C[C@H](NS(=O)(=O)/C=C/c1n[nH]c2c1CCCC/C2=C\c1ccc(Cl)cc1)c1ccccc1 [Cpd 237, (2E,8E)-2-[8-(4-chloro-benzylidene)-1,4,5,6,7,8-hexahydro-cycloheptapyrazol-3-yl]-ethenesulfonic acid [(1S)-1-phenyl-ethyl]-amide] | 100 nM | – | 9 nM | 3600 nM | 1700 nM | 3200 nM | > 3000 nM | 64% | –
3 | O=C(N[C@H](CO)c1ccccc1)c1n[nH]c2c1CCCCC2Cc1cccc(Cl)c1 (single isomer, unassigned) [Cpd 231, (8S*)-8-(3-chloro-benzyl)-1,4,5,6,7,8-hexahydro-cycloheptapyrazole-3-carboxylic acid [(1S)-2-hydroxy-1-phenyl-ethyl]-amide] | 200 nM | – | 12 nM | – | > 5000 nM | 82 nM | > 3000 nM | – | > 1000 nM
4 | O=C(N[C@H](CO)c1ccccc1)c1n[nH]c2c1CCCCC2Cc1cccc(Cl)c1 (single isomer, unassigned) [Cpd 230, (8R*)-8-(3-chloro-benzyl)-1,4,5,6,7,8-hexahydro-cycloheptapyrazole-3-carboxylic acid [(1S)-2-hydroxy-1-phenyl-ethyl]-amide] | 40 nM | – | 2 nM | > 1000 nM | 1000 nM | 11 nM | 370 nM | – | –
